The text below walks through data of publication PMC8599855, “Detection of cancer stem cells by EMT-specific biomarker-based peptide ligands” (Scientific Reports, 2021).

The assay concerns SAS cells. The assay can be described thus: Western blot of EMT/CSC markers after in vitro induction of EMT. Type of assay: cell-based, human. On the procedure: To induce the EMT of SAS cells, cells were seeded in 60 mm^2 dishes at the density of 1 × 10^6 cells/dish overnight and incubated with 1.25 and 10 μM Unc0642. After 24 h, cells were exposed under 2 Gy and 4 Gy of radiation by a RS2000 Series Biological Irradiator (Rad Source Technologies Inc, Buford, GA, USA) and replaced with fresh Unc0642 containing medium every 24 h. The expression of vimentin and E-cadherin were detected by western blotting.
Cultured cells were placed on ice, washed by ice-cold PBS and lysed using CytoBuster Protein Extraction Reagent (cat. 71,009, Bedford, MA, USA) containing Protease Inhibitor Cocktail Set I (cat. 539131, Millipore, Bedford, MA, USA). Cells were then scraped, collected in Eppendorf tubes and the sonicated for 30 min. The lysate was spun down at 12,000 g for 10 min at 4 °C. The protein content was measured using Bradford reagent (BIO-RAD, Hercules, CA, USA). The equal amounts of protein (40 μg) were separated in SDS-PAGE gels (30% Acrylamide/Bis Solution, 29:1, cat. 1610157, BIO-RAD, Hercules, CA, USA) and transferred to PVDF membranes (cat. NEF1002001PK, Perkin-Elmer life sciences, Boston, MA, USA). For immunoblotting, membranes were cut in terms of the molecular weight range prior to hybridization with primary antibody for vimentin (GTX100619, GeneTex, Irvine, CA, USA), nucleolin (GTX132778, GeneTex, Irvine, CA, USA), E-cadherin (GTX50757, GeneTex, Irvine, CA, USA) and b-actin (GTX109639, GeneTex, Irvine, CA, USA) overnight at 4 °C and then incubated with horseradish peroxidase HRP-conjugate goat anti-rabbit IgG (GeneTex, Irvine, CA, USA). Protein signals were visualized using a LumiFast Chemiluminescence Detection Kit (cat. JT96-K001S, T-Pro Biotechnology, Taiwan). Image capture was performed on an ImageQuant LAS4000 biomolecular image (GE healthcare life, Chicago, IL, USA). The intensities of protein bands were quantitated using ImageJ Gel Analysis program. Quantification of protein expression was performed by Image J. b-actin was used as loading control.
In general terms: A western blot detects proteins with antibodies after separation by electrophoresis.

Each structure is given as a SMILES string.

Turning to `COc1cc2c(NC3CCN(C(C)C)CC3)nc(N3CCC(F)(F)CC3)nc2cc1OCCCN1CCCC1` [Unc0642], the Vimentin expression result is reported as “increased” (1.25 μM Unc0642, western blot) and “almost unchanged” (10 μM Unc0642, western blot). The Nucleolin level result (1.25 μM Unc0642, western blot, p < 0.05) is given as “slightly increased”. Further, the “Vimentin expression versus control SAS cells” value (2 Gy of IR and 1.25 μM Unc0642, western blot normalized to b-actin, p < 0.01) is listed as “~ twofold”. Further, under “Unc0642 alone, western blot”, the E-cadherin protein expression result was “diminished protein expression level”.
